ChEMBL document CHEMBL3507680, “University of Dundee, Gates Library screen for HepG2 cell viability”

Experiment: Human HepG2 cell viability assay in 384 well format
Type: toxicity, cell-based
Set-up: dose 125 nL, time 70.5 hour; cytotoxicity at 70.5 h: concentration not given beside the values
Conditions: HepG2 cells, read-out: Inhibition
Compound CCc1n[nH]c(C2CN(C(=O)CCn3ccccc3=O)CCO2)n1 (stereo not drawn) has a cytotoxicity at 70.5 h of -2.35%.
For CN1CCCN(C(=O)NCCNc2cnccn2)CC1, the cytotoxicity at 70.5 h was -3.22%.
COc1ccccc1CCNC(=O)N1CCC(n2cncn2)CC1 showed a cytotoxicity at 70.5 h of -7.07%.
Work on CC(=O)N1CCCN(C(=O)NCCNc2cnccn2)CC1 yielded a cytotoxicity at 70.5 h of -2.47%.
With Cc1nc(C)n(CC2CCCN(CCCOc3ccc(F)cc3)C2)n1 (stereo not drawn) the cytotoxicity at 70.5 h was -2.75%.
With O=C(NCCc1ccc(F)cc1)NCC(O)c1cccc(F)c1 (stereo not drawn) the cytotoxicity at 70.5 h was 23.3%.
In the case of COCCc1noc(CN2CCCC2Cn2nc(C)nc2C)n1 (stereo not drawn), the cytotoxicity at 70.5 h is reported as 44.8%.
CCC1CN(CC(=O)N2CCCC2)CCN1CCOC (stereo not drawn) showed a cytotoxicity at 70.5 h of -10.3%.
With Cc1ccc(N2CCCC(NCc3sccc3C)C2)nn1 (stereo not drawn) the cytotoxicity at 70.5 h was -7.95%.
Work on Cc1nc(C)n(CC2CN(Cc3nc4ccccc4s3)CCO2)n1 (stereo not drawn) yielded a cytotoxicity at 70.5 h of 18.9%.
For CCC1CN(CC(=O)N2CCN(C(C)=O)CC2)CCN1CCOC (stereo not drawn), the cytotoxicity at 70.5 h was -7.53%.
CC(C)C(=O)NC1CCCN(C(=O)c2cc3ccccc3cc2O)C1 (stereo not drawn) showed a cytotoxicity at 70.5 h of -4.18%.
Compound O=C(NCc1ccccc1)NCC(O)c1cccc(F)c1 (stereo not drawn) has a cytotoxicity at 70.5 h of -6.42%.
CC(C)C(=O)NC1CCCN(C(=O)c2ccc(O)c(Cl)c2)C1 (stereo not drawn) gave a cytotoxicity at 70.5 h of -9.92%.
For CCN(Cc1c(F)cccc1F)Cn1nc(C)c2c(C)onc2c1=O, the cytotoxicity at 70.5 h was 2.01%.
Cc1cc(C)n(CC2CN(Cc3nc4ccccc4s3)CCO2)n1 (stereo not drawn) gave a cytotoxicity at 70.5 h of -5.7%.
With CCOc1cccc2c1OCC(C(=O)NS(=O)(=O)c1cncc(Br)c1)=C2 the cytotoxicity at 70.5 h was 2.74%.
For COc1ccc(CC(=O)N2CCC(Nc3ccc(C)nn3)CC2)cc1, the cytotoxicity at 70.5 h was -3.12%.
Cc1ccc(N(C)S(=O)(=O)c2cc(C(=O)O)cs2)cc1 gave a cytotoxicity at 70.5 h of 4.32%.
O=C(c1cnc(-c2ccccn2)s1)N1CCCC1Cn1cccn1 (stereo not drawn) gave a cytotoxicity at 70.5 h of -8.6%.
Compound O=C(c1cnc(-c2ncccn2)s1)N1CCCC1Cn1cccn1 (stereo not drawn) has a cytotoxicity at 70.5 h of -2.29%.
CC(C)Oc1ccc(C(=O)NCc2ccc3c(c2)CCCN3C)cn1 showed a cytotoxicity at 70.5 h of -2.36%.
Compound CCOc1cccc2c1OCC(C(=O)NS(=O)(=O)c1ccc(Cl)s1)=C2 has a cytotoxicity at 70.5 h of -7.24%.
Work on CC(O)CN1CCN(C(=O)c2ccc(CN(C)C)cc2)CC1 (stereo not drawn) yielded a cytotoxicity at 70.5 h of -0.592%.
With CN(Cc1noc(C2CC2)n1)C1CCN(CCn2cc(C#N)cn2)C1 (stereo not drawn) the cytotoxicity at 70.5 h was 22.1%.
In the case of Cc1nc(C2CCCN2C(=O)CCOCc2ccccc2)no1 (stereo not drawn), the cytotoxicity at 70.5 h is reported as -8.94%.
With Cc1cnn(C2CCCN(C(=O)c3cccc4c3OCO4)C2)c1 (stereo not drawn) the cytotoxicity at 70.5 h was -10.4%.
With COCCOc1ncccc1C(=O)N1CCCC1Cn1cc(C)cn1 (stereo not drawn) the cytotoxicity at 70.5 h was -12%.
CC(C)c1nc(CN(C)C2CCN(CCn3cc(C#N)cn3)C2)no1 (stereo not drawn) showed a cytotoxicity at 70.5 h of -14.7%.
Cc1nccn1C1CCCN(C(=O)c2cccc3c2OCO3)C1 (stereo not drawn) showed a cytotoxicity at 70.5 h of -9.12%.
With Cc1nc(C)n(CC2CCCN(c3ncnc4ccccc34)C2)n1 (stereo not drawn) the cytotoxicity at 70.5 h was -6.84%.
In the case of Cc1cnn(CC2CCCCN2C(=O)c2ccccc2-n2cccn2)c1 (stereo not drawn), the cytotoxicity at 70.5 h is reported as -17.3%.
Compound Cc1cc(C)n(CC2CCCN2C(=O)c2cccnc2N(C)C)n1 (stereo not drawn) has a cytotoxicity at 70.5 h of -8.62%.
Work on CCc1nccn1C1CCCN(C(=O)c2cccc3c2OCO3)C1 (stereo not drawn) yielded a cytotoxicity at 70.5 h of -16%.
O=C(c1ccccc1OC1CCCC1)N1CCCC(n2cncn2)C1 (stereo not drawn) showed a cytotoxicity at 70.5 h of -9.06%.
With Cc1nn(C)c(Cl)c1C1CCCN1C(=O)c1cnn(C)c1C1CC1 (stereo not drawn) the cytotoxicity at 70.5 h was -14.5%.
With CN(C)c1ccc(CNC(=O)NCCc2cccs2)cn1 the cytotoxicity at 70.5 h was -12.3%.
CN(C)c1ccc(CNC(=O)NCCc2ccccn2)cn1 showed a cytotoxicity at 70.5 h of -12.8%.
Compound CCn1cnnc1CNC(=O)N(C)Cc1ccc2c(c1)OCO2 has a cytotoxicity at 70.5 h of -10.2%.
Work on COCCN(Cc1nc2c(cnn2C)c(=O)[nH]1)C(C)c1ccccc1 (stereo not drawn) yielded a cytotoxicity at 70.5 h of -2.95%.
For O=C(c1cccc2c1OCCO2)N1CCCC(n2cccn2)C1 (stereo not drawn), the cytotoxicity at 70.5 h was -8.22%.
CCCOc1cccc(C(=O)N2CCCC(n3cncn3)C2)c1 (stereo not drawn) showed a cytotoxicity at 70.5 h of -13.7%.
For O=C(c1cnc(-c2ccccn2)s1)N1CCCC(n2cccn2)C1 (stereo not drawn), the cytotoxicity at 70.5 h was 10.2%.
For c1nc(N2CCCC(Cn3cncn3)C2)c2sccc2n1 (stereo not drawn), the cytotoxicity at 70.5 h was -2.8%.
Cc1nc(C)n(CC2CCCCN2c2ncnc3ccsc23)n1 (stereo not drawn) gave a cytotoxicity at 70.5 h of -11.9%.
Compound Cc1cnn(CC2CCCCN2C(=O)c2cccnc2N(C)C)c1 (stereo not drawn) has a cytotoxicity at 70.5 h of 9.64%.
Work on Cc1nccn1CCCC(=O)N1CCC(N(C)c2cccnn2)CC1 yielded a cytotoxicity at 70.5 h of -7.52%.
Compound Cc1nn(C)c(Cl)c1C1CCCN1C(=O)c1csnn1 (stereo not drawn) has a cytotoxicity at 70.5 h of -4.32%.
With Cc1nn(C)c(Cl)c1C1CCCN1C(=O)c1cccn1C (stereo not drawn) the cytotoxicity at 70.5 h was -10.5%.
With Cc1ncsc1C(=O)N1CCCC1c1c(C)nn(C)c1Cl (stereo not drawn) the cytotoxicity at 70.5 h was -13.8%.
In the case of N#Cc1cc(NS(=O)(=O)c2cc(C(=O)O)cc(Cl)c2Cl)ccc1F, the cytotoxicity at 70.5 h is reported as 0.738%.
Work on Cc1c(F)cc(C(=O)O)cc1S(=O)(=O)Nc1ccc(F)c(C#N)c1 yielded a cytotoxicity at 70.5 h of -9.42%.
In the case of Cc1nn(C)c(C)c1C1CCCN1C(=O)c1nccnc1N (stereo not drawn), the cytotoxicity at 70.5 h is reported as -8.84%.
CN(Cc1nnc2n1CCC2)C(=O)c1ccc2c(c1)OCCCO2 gave a cytotoxicity at 70.5 h of 18.9%.
Work on Cc1cc(C)n(CC2CCCN2CC(=O)N(C)Cc2ccc(C)o2)n1 (stereo not drawn) yielded a cytotoxicity at 70.5 h of 18%.
In the case of Cc1cc(C)n(CC2CCCN2C(=O)c2c(C)noc2C)n1 (stereo not drawn), the cytotoxicity at 70.5 h is reported as 18.5%.
Work on O=C(NCCNc1ncccn1)C1CC(=O)N(C2CCCC2)C1 (stereo not drawn) yielded a cytotoxicity at 70.5 h of -6.36%.
CC(C)CN1CC(C(=O)NCCNc2ncccn2)CC1=O (stereo not drawn) showed a cytotoxicity at 70.5 h of -0.397%.
